Experimental data reported in patent publication US6337417B1, “N-phenyltetrahydrophthalamic acid derivatives, methods of producing same, and herbicides containing same as effective components” (Central Glass Co., Ltd., priority 1994, dated 2002).

What was measured:
Assay type in all cases: in vivo
Design in all cases: key: 5: completely killed; 4: seriously injured; 3: considerably injured; 2: somewhat injured; 1: slightly injured; 0: not injured (normally grown)
[1] = test system: cockspur (Panicum crus-galli); test: Experiment 2 foliage treatment: cockspur; settings: 4 weeks after treatment
Protocol: (§1) Upon seedling stage (two- or three-leaved stage) of rice, cockspur (Panicum crus-galli), garden radish, aobiyu (slender amaranth, Amaranthus viridis) and mehishiba (henry crabgrass, Digitaria cliaris) which were grown on a cultivated soil put in pots of 1/15500 ares, a selected compound obtained in a manner analogous to Example 8, in suspended wettable powder, was sprayed to each plant. After that, the pots were kept in a glass chamber to allow each plant to grow, and after the lapse of 4 weeks from the treatment with the selected compounds the herbicidal effects were evaluated. The evaluation of the herbicidal effects was similarly conducted as to that of Experiment 1.

[2] = test system: garden radish; test: Experiment 2 foliage treatment: garden radish; settings: 4 weeks after treatment
Protocol: as §1

[3] = test system: mehishiba (henry crabgrass, Digitaria cliaris); test: Experiment 2 foliage treatment: mehishiba; settings: 4 weeks after treatment
Protocol: as §1

[4] = test system: rice; test: Experiment 2 foliage treatment: rice; settings: 4 weeks after treatment
Protocol: as §1

[5] = test system: aobiyu (slender amaranth, Amaranthus viridis); test: Experiment 2 foliage treatment: aobiyu; settings: 4 weeks after treatment
Protocol: as §1

[6] = test system: tamagayatsuri (small-flowered umbrellaplant, Cyperus difformis); test: Experiment 4 flooded soil treatment: tamagayatsuri; settings: 4 weeks after treatment
Description: (§2) Paddy soil (clay loam) was put into a pot so as to have a surface area of 1/15500 ares. Uniformly mixed seeds of several kinds of weeds, viz., nobie (barnyardgrass, Echinochloa spp.), broad-leaved weeds, hotarui (bulrush, Scirpus juncoides) and tamagayatsuri (small-flowered umbrellaplant, Cyperus difformis), were sown in the surface layer of the soil in each pot, and then paddy rice seedlings at the two- or three-leaved stage were transplanted into each pot to a depth of 2 cm, and water was fed into each pot so as to provide a 3 cm deep water layer on the soil surface. After 3 days, in other words at the initial stage of germination of nobie (barnyardgrass, Echinochloa spp.), a predetermined amount of a selected compound obtained in a manner analogous to Example 11 in the form of diluted aqueous solution was dropped into the water layer in each pot. After that, the pots were kept in a glass chamber to allow the paddy rice and the weeds to grow, and after the lapse of 4 weeks from the treatment with the selected compounds, the herbicidal effects and the degree of injury to the paddy rice were evaluated. The evaluation of the herbicidal effects was similarly conducted as to that of Experiment 1.

[7] = test system: aobiyu (slender amaranth, Amaranthus viridis); test: Experiment 5 foliage treatment: aobiyu; settings: foliage spray of wettable powder suspension, evaluated 4 weeks after treatment
Protocol: as §1, with “11,” for “8,”, “as” for “as to”

[8] = test system: cockspur (Panicum crus-galli); test: Experiment 5 foliage treatment: cockspur; settings: foliage spray of wettable powder suspension, evaluated 4 weeks after treatment
Protocol: as §1, with “11,” for “8,”, “as” for “as to”

[9] = test system: garden radish; test: Experiment 5 foliage treatment: garden radish; settings: foliage spray of wettable powder suspension, evaluated 4 weeks after treatment
Protocol: as §1, with “11,” for “8,”, “as” for “as to”

[10] = test system: mehishiba (henry crabgrass, Digitaria cliaris); test: Experiment 5 foliage treatment: mehishiba; settings: foliage spray of wettable powder suspension, evaluated 4 weeks after treatment
Protocol: as §1, with “11,” for “8,”, “as” for “as to”

[11] = test system: rice; test: Experiment 5 foliage treatment: rice; settings: foliage spray of wettable powder suspension, evaluated 4 weeks after treatment
Protocol: as §1, with “11,” for “8,”, “as” for “as to”

[12] = test system: broad-leaved weeds; test: Experiment 4 flooded soil treatment: broad-leaved weeds; settings: 4 weeks after treatment
Description: as §2

[13] = test system: paddy rice; test: Experiment 4 flooded soil treatment: injury to paddy rice; settings: 4 weeks after treatment
Description: as §2

[14] = test system: hotarui (bulrush, Scirpus juncoides); test: Experiment 4 flooded soil treatment: hotarui; settings: 4 weeks after treatment
Description: as §2

[15] = test system: nobie (barnyardgrass, Echinochloa spp.); test: Experiment 4 flooded soil treatment: nobie; settings: 4 weeks after treatment
Description: as §2

[16] = test system: rice; test: Experiment 8 foliage treatment: rice; settings: foliage spray of wettable powder suspension, evaluated 4 weeks after treatment
Protocol: as §1, with “14,” for “8,”

[17] = test system: garden radish; test: Experiment 8 foliage treatment: garden radish; settings: foliage spray of wettable powder suspension, evaluated 4 weeks after treatment
Protocol: as §1, with “14,” for “8,”

[18] = test system: aobiyu (slender amaranth, Amaranthus viridis); test: Experiment 8 foliage treatment: aobiyu; settings: foliage spray of wettable powder suspension, evaluated 4 weeks after treatment
Protocol: as §1, with “14,” for “8,”

[19] = test system: mehishiba (henry crabgrass, Digitaria cliaris); test: Experiment 8 foliage treatment: mehishiba; settings: foliage spray of wettable powder suspension, evaluated 4 weeks after treatment
Protocol: as §1, with “14,” for “8,”

[20] = test system: cockspur (Panicum crus-galli); test: Experiment 8 foliage treatment: cockspur; settings: foliage spray of wettable powder suspension, evaluated 4 weeks after treatment
Protocol: as §1, with “14,” for “8,”

SMILES | Herbicidal Effect cockspur ([1]; 40 g/10a) | Herbicidal Effect cockspur ([1]; 80 g/10a) | Herbicidal Effect garden radish ([2]; 40 g/10a) | Herbicidal Effect garden radish ([2]; 80 g/10a) | Herbicidal Effect mehishiba ([3]; 40 g/10a) | Herbicidal Effect mehishiba ([3]; 80 g/10a) | Herbicidal Effect rice ([4]; 40 g/10a) | Herbicidal Effect rice ([4]; 80 g/10a) | Herbicidal Effect aobiyu ([5]; 40 g/10a) | Herbicidal Effect aobiyu ([5]; 80 g/10a) | Herbicidal Effect aobiyu ([7]; 40 g/10a) | Herbicidal Effect aobiyu ([7]; 80 g/10a) | Herbicidal Effect cockspur ([8]; 40 g/10a) | Herbicidal Effect cockspur ([8]; 80 g/10a) | Herbicidal Effect garden radish ([9]; 40 g/10a) | Herbicidal Effect garden radish ([9]; 80 g/10a) | Herbicidal Effect mehishiba ([10]; 40 g/10a) | Herbicidal Effect mehishiba ([10]; 80 g/10a) | Herbicidal Effect rice ([11]; 40 g/10a) | Herbicidal Effect rice ([11]; 80 g/10a) | further results
CCCCOC(=O)CSc1cc(N(C(C)=O)C(=O)C2=C(C(=O)OCCCC)CCCC2)c(F)cc1Cl [compound 40] | 1 | 1 | 5 | 5 | 1 | 1 | 1 | 1 | 5 | 5 |  |  |  |  |  |  |  |  |  |  | 
C#CCOC(=O)C1=C(C(=O)N(C(=O)c2cccnc2)c2cc(OC(C)C#C)c(Cl)cc2F)CCCC1 (centres unmarked) [compound 61] |  |  |  |  |  |  |  |  |  |  | 5 | 5 | 2 | 2 | 5 | 5 | 4.5 | 5 | 3 | 4 | Herbicidal Effect tamagayatsuri ([6]; 3.13 g/10a): 5; Herbicidal Effect tamagayatsuri ([6]; 6.25 g/10a): 5; Herbicidal Effect broad-leaved weed ([12]; 3.13 g/10a): 5; Herbicidal Effect broad-leaved weed ([12]; 6.25 g/10a): 5; Injury of Paddy ([13]; 3.13 g/10a): 0; Injury of Paddy ([13]; 6.25 g/10a): 0.5; Herbicidal Effect hotarui ([14]; 3.13 g/10a): 4; Herbicidal Effect hotarui ([14]; 6.25 g/10a): 4; Herbicidal Effect nobie ([15]; 3.13 g/10a): 5; Herbicidal Effect nobie ([15]; 6.25 g/10a): 5
CCCCOC(=O)c1cc(N(C(=O)C2=C(C(=O)OC)CCCC2)C(=O)c2cccnc2)c(F)cc1Cl [compound 66] |  |  |  |  |  |  |  |  |  |  | 5 | 5 | 1 | 1 | 4.5 | 5 | 1 | 2 | 1 | 1 | Herbicidal Effect tamagayatsuri ([6]; 3.13 g/10a): 4; Herbicidal Effect tamagayatsuri ([6]; 6.25 g/10a): 4; Herbicidal Effect broad-leaved weed ([12]; 3.13 g/10a): 5; Herbicidal Effect broad-leaved weed ([12]; 6.25 g/10a): 5; Injury of Paddy ([13]; 3.13 g/10a): 0; Injury of Paddy ([13]; 6.25 g/10a): 0; Herbicidal Effect hotarui ([14]; 3.13 g/10a): 4; Herbicidal Effect hotarui ([14]; 6.25 g/10a): 4; Herbicidal Effect nobie ([15]; 3.13 g/10a): 5; Herbicidal Effect nobie ([15]; 6.25 g/10a): 5
COCCOC(=O)C1=C(C(=O)N(C(=O)c2cccnc2)c2cc(C(=O)OC)c(Cl)cc2F)CCCC1 [compound 65] |  |  |  |  |  |  |  |  |  |  | 5 | 5 | 1 | 1 | 5 | 5 | 1 | 1 | 1 | 1 | Herbicidal Effect tamagayatsuri ([6]; 3.13 g/10a): 4; Herbicidal Effect tamagayatsuri ([6]; 6.25 g/10a): 4; Herbicidal Effect broad-leaved weed ([12]; 3.13 g/10a): 5; Herbicidal Effect broad-leaved weed ([12]; 6.25 g/10a): 5; Injury of Paddy ([13]; 3.13 g/10a): 0; Injury of Paddy ([13]; 6.25 g/10a): 0; Herbicidal Effect hotarui ([14]; 3.13 g/10a): 4; Herbicidal Effect hotarui ([14]; 6.25 g/10a): 4; Herbicidal Effect nobie ([15]; 3.13 g/10a): 5; Herbicidal Effect nobie ([15]; 6.25 g/10a): 5
CCC(=O)Nc1ccc(Cl)c(Cl)c1 [Comparative agentB, Propanil, reference compound] | 0 | 0 | 3 | 4 | 1 | 1 | 0 | 0 | 5 | 5 | 5 | 5 | 0 | 0 | 3 | 4 | 1 | 1 | 0 | 0 | Herbicidal Effect rice ([16]; 40 g/10a): 0; Herbicidal Effect rice ([16]; 80 g/10a): 0; Herbicidal Effect garden radish ([17]; 40 g/10a): 1; Herbicidal Effect garden radish ([17]; 80 g/10a): 3; Herbicidal Effect aobiyu ([18]; 40 g/10a): 5; Herbicidal Effect aobiyu ([18]; 80 g/10a): 5; Herbicidal Effect mehishiba ([19]; 40 g/10a): 0; Herbicidal Effect mehishiba ([19]; 80 g/10a): 1; Herbicidal Effect cockspur ([20]; 40 g/10a): 1; Herbicidal Effect cockspur ([20]; 80 g/10a): 1
CCCCOC(=O)C1=C(C(=O)N(C(C)=O)c2cc(SCC(=O)OCC)c(Cl)cc2F)CCCC1 [compound 39] | 1 | 1 | 5 | 5 | 1 | 1 | 1 | 1 | 5 | 5 |  |  |  |  |  |  |  |  |  |  | 
